Measured values: patent publication US20210070748A1, “INHIBITORS OF BRUTONS TYROSINE KINASE” (Pharmacyclics LLC, priority 2015, published 2021)

What was measured:
Assay type in all cases: biochemical
JAK3 = biological target: T1, JAK3 (Homo sapiens, UniProt P52333); assay: Inhibition of a panel of kinases, in vitro HotSpot kinase assay: JAK3; conditions: D-compounds panel data; 1 μM ATP; read-out: IC50 JAK3
T1 sequence (P52333 1-1124): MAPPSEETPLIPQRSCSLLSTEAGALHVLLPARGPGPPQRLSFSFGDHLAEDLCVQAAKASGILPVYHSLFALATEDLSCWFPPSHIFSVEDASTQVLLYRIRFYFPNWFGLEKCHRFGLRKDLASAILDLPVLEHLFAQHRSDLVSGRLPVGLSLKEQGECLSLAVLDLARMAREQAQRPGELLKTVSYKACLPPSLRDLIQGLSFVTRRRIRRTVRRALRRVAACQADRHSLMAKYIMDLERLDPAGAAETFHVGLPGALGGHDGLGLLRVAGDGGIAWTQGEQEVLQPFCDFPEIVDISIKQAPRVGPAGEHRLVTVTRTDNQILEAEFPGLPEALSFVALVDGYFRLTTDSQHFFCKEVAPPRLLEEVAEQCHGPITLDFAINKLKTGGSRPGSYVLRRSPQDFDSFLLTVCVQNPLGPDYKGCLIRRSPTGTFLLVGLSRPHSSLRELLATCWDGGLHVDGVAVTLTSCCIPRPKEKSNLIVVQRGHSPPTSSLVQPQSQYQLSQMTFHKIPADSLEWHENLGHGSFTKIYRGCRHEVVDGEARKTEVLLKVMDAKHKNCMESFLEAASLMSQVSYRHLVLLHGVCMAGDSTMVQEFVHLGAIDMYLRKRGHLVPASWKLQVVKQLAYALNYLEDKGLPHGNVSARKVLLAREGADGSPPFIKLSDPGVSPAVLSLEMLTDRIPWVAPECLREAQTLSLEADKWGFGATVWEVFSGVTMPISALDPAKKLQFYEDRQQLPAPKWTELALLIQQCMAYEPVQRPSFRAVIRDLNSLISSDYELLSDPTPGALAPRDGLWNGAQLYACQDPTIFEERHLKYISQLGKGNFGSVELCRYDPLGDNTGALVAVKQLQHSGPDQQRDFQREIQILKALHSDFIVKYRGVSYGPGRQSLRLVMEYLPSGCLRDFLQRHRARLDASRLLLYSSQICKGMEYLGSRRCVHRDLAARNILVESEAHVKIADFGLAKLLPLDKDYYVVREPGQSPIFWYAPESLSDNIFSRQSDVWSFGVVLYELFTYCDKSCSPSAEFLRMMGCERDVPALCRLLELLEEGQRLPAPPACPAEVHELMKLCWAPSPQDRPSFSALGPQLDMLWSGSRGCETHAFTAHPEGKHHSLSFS

LCK = LCK (Homo sapiens, UniProt P06239); assay: Inhibition of a panel of kinases, in vitro HotSpot kinase assay: LCK; conditions: D-compounds panel data; 1 μM ATP; read-out: IC50 LCK
EGFR = EGFR (Homo sapiens, UniProt P00533); assay: Inhibition of a panel of kinases, in vitro HotSpot kinase assay: EGFR; conditions: D-compounds panel data; 1 μM ATP
Procedure: (§1) The degree of inhibition of a panel of kinases is determined using the in vitro HotSpot kinase assay (purified enzymes, ^33P-ATP, an appropriate substrate and 1 μM ATP).

SRC = SRC (Homo sapiens, UniProt P12931); assay: Inhibition of a panel of kinases, in vitro HotSpot kinase assay: SRC; conditions: D-compounds panel data; 1 μM ATP
Procedure: as §1

TEC = biological target: T2, TEC (Homo sapiens, UniProt P42680); assay: Inhibition of a panel of kinases, in vitro HotSpot kinase assay: TEC; conditions: D-compounds panel data; 1 μM ATP
T2 sequence (P42680 1-631): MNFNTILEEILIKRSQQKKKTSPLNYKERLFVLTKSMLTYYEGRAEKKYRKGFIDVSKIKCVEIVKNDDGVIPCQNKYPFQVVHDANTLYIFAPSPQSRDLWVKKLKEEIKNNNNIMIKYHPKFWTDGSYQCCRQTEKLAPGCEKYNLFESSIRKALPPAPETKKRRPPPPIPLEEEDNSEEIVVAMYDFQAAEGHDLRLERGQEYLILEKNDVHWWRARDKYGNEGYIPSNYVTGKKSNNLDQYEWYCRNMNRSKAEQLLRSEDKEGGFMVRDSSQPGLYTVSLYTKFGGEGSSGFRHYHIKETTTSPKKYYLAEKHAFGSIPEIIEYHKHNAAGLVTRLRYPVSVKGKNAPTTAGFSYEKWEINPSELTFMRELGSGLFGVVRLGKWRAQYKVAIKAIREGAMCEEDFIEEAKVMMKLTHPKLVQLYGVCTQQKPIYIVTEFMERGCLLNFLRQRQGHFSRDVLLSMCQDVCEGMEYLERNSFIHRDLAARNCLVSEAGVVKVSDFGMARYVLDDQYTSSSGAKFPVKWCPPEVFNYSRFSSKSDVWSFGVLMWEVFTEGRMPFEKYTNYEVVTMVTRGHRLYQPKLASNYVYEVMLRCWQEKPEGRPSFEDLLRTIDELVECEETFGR
Procedure: as §1

Chain of SRC (P12931 whole entry): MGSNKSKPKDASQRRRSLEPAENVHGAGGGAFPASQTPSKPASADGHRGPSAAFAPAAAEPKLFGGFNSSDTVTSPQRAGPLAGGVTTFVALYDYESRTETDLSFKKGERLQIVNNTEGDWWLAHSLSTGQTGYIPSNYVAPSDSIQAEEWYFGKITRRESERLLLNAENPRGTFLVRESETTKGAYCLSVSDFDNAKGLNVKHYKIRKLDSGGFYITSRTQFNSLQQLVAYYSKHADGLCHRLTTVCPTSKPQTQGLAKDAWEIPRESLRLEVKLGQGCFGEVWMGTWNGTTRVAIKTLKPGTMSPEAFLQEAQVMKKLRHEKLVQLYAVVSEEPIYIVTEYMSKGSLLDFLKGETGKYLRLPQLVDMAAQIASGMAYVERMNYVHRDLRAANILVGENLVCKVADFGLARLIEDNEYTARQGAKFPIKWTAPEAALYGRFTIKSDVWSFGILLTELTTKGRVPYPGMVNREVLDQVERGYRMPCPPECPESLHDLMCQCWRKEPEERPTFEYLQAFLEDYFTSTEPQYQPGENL
Chain of EGFR (P00533 25-1210): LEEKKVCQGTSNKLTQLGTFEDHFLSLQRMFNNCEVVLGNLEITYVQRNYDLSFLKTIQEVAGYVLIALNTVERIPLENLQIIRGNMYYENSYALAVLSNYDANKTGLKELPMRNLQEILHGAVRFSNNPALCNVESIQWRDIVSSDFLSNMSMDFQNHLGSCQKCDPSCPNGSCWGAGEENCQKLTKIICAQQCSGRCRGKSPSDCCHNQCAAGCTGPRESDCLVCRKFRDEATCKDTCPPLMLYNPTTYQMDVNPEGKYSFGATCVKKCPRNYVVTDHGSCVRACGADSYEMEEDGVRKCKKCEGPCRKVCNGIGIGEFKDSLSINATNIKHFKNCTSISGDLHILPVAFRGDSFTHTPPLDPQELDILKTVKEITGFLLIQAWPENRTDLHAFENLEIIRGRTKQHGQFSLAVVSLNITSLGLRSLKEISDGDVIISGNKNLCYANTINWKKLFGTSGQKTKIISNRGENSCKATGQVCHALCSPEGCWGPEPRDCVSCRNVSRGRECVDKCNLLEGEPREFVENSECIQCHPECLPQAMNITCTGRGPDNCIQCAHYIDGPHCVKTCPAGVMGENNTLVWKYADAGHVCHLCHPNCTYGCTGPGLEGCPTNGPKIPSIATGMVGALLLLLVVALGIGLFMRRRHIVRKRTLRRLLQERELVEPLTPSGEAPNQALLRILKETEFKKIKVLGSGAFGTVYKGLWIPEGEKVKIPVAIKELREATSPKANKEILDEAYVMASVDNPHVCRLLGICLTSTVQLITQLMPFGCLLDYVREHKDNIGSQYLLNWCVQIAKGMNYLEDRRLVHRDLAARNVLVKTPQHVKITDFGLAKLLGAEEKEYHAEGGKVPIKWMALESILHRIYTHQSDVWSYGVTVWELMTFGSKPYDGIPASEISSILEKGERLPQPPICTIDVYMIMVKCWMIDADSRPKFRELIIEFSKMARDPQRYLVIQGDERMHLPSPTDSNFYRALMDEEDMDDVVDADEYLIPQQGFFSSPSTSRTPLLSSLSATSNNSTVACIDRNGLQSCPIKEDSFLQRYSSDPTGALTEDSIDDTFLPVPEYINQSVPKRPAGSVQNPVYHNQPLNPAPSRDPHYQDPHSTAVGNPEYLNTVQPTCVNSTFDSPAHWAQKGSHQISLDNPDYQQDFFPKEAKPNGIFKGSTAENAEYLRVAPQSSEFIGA
Chain of LCK (P06239 whole entry): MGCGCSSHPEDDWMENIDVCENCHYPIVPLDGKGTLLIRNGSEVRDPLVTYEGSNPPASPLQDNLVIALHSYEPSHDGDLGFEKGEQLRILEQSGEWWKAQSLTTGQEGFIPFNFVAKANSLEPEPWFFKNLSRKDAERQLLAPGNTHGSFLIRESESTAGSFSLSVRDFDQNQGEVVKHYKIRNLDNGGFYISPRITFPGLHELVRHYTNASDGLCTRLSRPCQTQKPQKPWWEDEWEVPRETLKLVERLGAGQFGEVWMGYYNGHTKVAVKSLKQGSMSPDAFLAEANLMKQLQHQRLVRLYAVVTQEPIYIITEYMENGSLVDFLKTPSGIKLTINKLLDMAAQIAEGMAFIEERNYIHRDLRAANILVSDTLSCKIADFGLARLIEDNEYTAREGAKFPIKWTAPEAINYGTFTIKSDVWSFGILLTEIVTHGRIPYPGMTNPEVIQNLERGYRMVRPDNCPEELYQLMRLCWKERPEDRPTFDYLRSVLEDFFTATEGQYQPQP

| SMILES | IC50 (JAK3) [nM] | IC50 (LCK) [nM] | IC50 (EGFR) [nM] | IC50 (SRC) [nM] | IC50 (TEC) [nM] |
| --- | --- | --- | --- | --- | --- |
| C[C@@H]1[C@H](NC(=O)c2ccc(C3CC3)cc2)CCCN1c1cnc(C(N)=O)c(Nc2cnn(C3CCOCC3)c2)n1 [Example D-274, 5-[(2R,3R)-3-(4-cyclopropylbenzamido)-2-methylpiperidin-1-yl]-3-{[1-(oxan-4-yl)-1H-pyrazol-4-yl]amino}pyrazine-2-carboxamide] | 1000 to 10000 | 100 to 1000 | 1000 to 10000 | 10 to 100 | ≤ 10 |
| Cc1cc2cc(C(=O)N[C@@H]3CCCN(c4cnc(C(N)=O)c(Nc5cnn(C)c5)n4)[C@@H]3C)ccc2o1 [Example D-246, 3-[(1-methyl-1H-pyrazol-4-yl)amino]-5-[(2R,3R)-2-methyl-3-(2-methyl-1-benzofuran-5-amido)piperidin-1-yl]pyrazine-2-carboxamide] | 1000 to 10000 | 10 to 100 | 1000 to 10000 | 10 to 100 | ≤ 10 |
| C[C@@H]1[C@H](NC(=O)c2ccc(C3CC3)cc2)CCCN1c1nnc(C(N)=O)c(Nc2cnn(C)c2)n1 [Example D-277, 3-[(2R,3R)-3-(4-cyclopropylbenzamido)-2-methylpiperidin-1-yl]-5-[(1-methyl-1H-pyrazol-4-yl)amino]-1,2,4-triazine-6-carboxamide] | 100 to 1000 | 10 to 100 | 1000 to 10000 | 10 to 100 | ≤ 10 |
| C[C@@H]1[C@H](NC(=O)c2ccc(C(O)C(F)(F)F)cc2)CCCN1c1cnc(C(N)=O)c(Nc2cnn(C)c2)n1 (single isomer, unassigned) [Example D-249] | 1000 to 10000 | 10 to 100 | 1000 to 10000 | 10 to 100 | ≤ 10 |
| C[C@@H]1[C@H](NC(=O)c2ccc3[nH]cnc3c2)CCCN1c1cnc(C(N)=O)c(Nc2cnn(C)c2)n1 [Example D-262, N-[(2R,3R)-1-{5-carbamoyl-6-[(1-methyl-1H-pyrazol-4-yl)amino]pyrazin-2-yl}-2-methylpiperidin-3-yl]-1H-1,3-benzodiazole-5-carboxamide] | 1000 to 10000 | 10 to 100 | 1000 to 10000 | 10 to 100 | ≤ 10 |
| CCn1cc(Nc2nc(N3CCC[C@@H](NC(=O)c4ccc(C5CC5)cc4)[C@H]3C)cnc2C(N)=O)cn1 [Example D-273, 5-[(2R,3R)-3-(4-cyclopropylbenzamido)-2-methylpiperidin-1-yl]-3-[(1-ethyl-1H-pyrazol-4-yl)amino]pyrazine-2-carboxamide] | 1000 to 10000 | 100 to 1000 | 100 to 1000 | 100 to 1000 | 10 to 100 |
| C[C@@H]1[C@H](NC(=O)c2cc(C(C)(C)C)n[nH]2)CCCN1c1cnc(C(N)=O)c(Nc2cnn(C)c2)n1 [Example D-244, 5-[(2R,3R)-3-(3-tert-butyl-1H-pyrazole-5-amido)-2-methylpiperidin-1-yl]-3-[(1-methyl-1H-pyrazol-4-yl)amino]pyrazine-2-carboxamide] | 100 to 1000 | 100 to 1000 | 1000 to 10000 | 10 to 100 | 10 to 100 |
| C[C@@H]1[C@H](NC(=O)c2ccc(C(C)(O)CO)cc2)CCCN1c1cnc(C(N)=O)c(Nc2cnn(C)c2)n1 (single isomer, unassigned) [Example D-265] | 100 to 1000 | 100 to 1000 | 100 to 1000 | 10 to 100 | ≤ 10 |
| C[C@@H]1[C@H](NC(=O)c2ccc(C3CC3)cc2C(F)(F)F)CCCN1c1cnc(C(N)=O)c(Nc2cnn(C)c2)n1 [Example D-25, 5-[(2R,3R)-3-[4-cyclopropyl-2-(trifluoromethyl)benzamido]-2-methylpiperidin-1-yl]-3-[(1-methyl-1H-pyrazol-4-yl)amino]pyrazine-2-carboxamide] | 1000 to 10000 | 100 to 1000 | 1000 to 10000 | 100 to 1000 | 10 to 100 |
| C[C@@H]1[C@H](NC(=O)c2ccc3c(cnn3C)c2)CCCN1c1cnc(C(N)=O)c(Nc2cnn(C)c2)n1 [Example D-254, N-[(2R,3R)-1-{5-carbamoyl-6-[(1-methyl-1H-pyrazol-4-yl)amino]pyrazin-2-yl}-2-methylpiperidin-3-yl]-1-methyl-1H-indazole-5-carboxamide] | 1000 to 10000 | 100 to 1000 | 1000 to 10000 | 10 to 100 | ≤ 10 |
| C[C@@H]1[C@H](NC(=O)c2ccc(C3CC3)cc2)CCCN1c1cnc(C(N)=O)c(Nc2cnn(C)c2C(F)(F)F)n1 [Example D-276, 5-[(2R,3R)-3-(4-cyclopropylbenzamido)-2-methylpiperidin-1-yl]-3-{[1-methyl-5-(trifluoromethyl)-1H-pyrazol-4-yl]amino}pyrazine-2-carboxamide] | > 10000 | > 10000 | > 10000 | > 10000 | > 10000 |

Results, then the compound that gave them:

| IC50 (JAK3) [nM] | IC50 (LCK) [nM] | IC50 (EGFR) [nM] | IC50 (SRC) [nM] | IC50 (TEC) [nM] | SMILES |
| --- | --- | --- | --- | --- | --- |
| 100 to 1000 | < 10 | 100 to 1000 | ≤ 10 | ≤ 10 | C[C@@H]1[C@H](NC(=O)c2ccc(C3CC3)cc2)CCCN1c1cnc(C(N)=O)c(Nc2cc(C3CCN(C)CC3)ns2)n1 [Example D-312, 5-[(2R,3R)-3-(4-cyclopropylbenzamido)-2-methylpiperidin-1-yl]-3-{[3-(1-methylpiperidin-4-yl)-1,2-thiazol-5-yl]amino}pyrazine-2-carboxamide] |
| 1000 to 10000 | 100 to 1000 | 1000 to 10000 | 100 to 1000 | 10 to 100 | C[C@@H]1[C@H](NC(=O)N(C)C)CCCN1c1cnc(C(N)=O)c(Nc2ccc(N3CCC(F)(F)CC3)cc2)n1 [Example D-306, 3-{[4-(4,4-difluoropiperidin-1-yl)phenyl]amino}-5-[(2R,3R)-3-[(dimethylcarbamoyl)amino]-2-methylpiperidin-1-yl]pyrazine-2-carboxamide] |
| 1000 to 10000 | < 10 | 1000 to 10000 | ≤ 10 | ≤ 10 | C[C@@H]1[C@H](NC(=O)c2ccc(C3CC3)cc2)CCCN1c1cnc(C(N)=O)c(Nc2cnn(C3CCNCC3)c2)n1 [Example D-280, 5-[(2R,3R)-3-(4-cyclopropylbenzamido)-2-methylpiperidin-1-yl]-3-{[1-(piperidin-4-yl)-1H-pyrazol-4-yl]amino}pyrazine-2-carboxamide] |
| > 10000 | > 10000 | > 10000 | > 10000 | > 10000 | C[C@@H]1[C@H](NC(=O)c2ccc(C3CC3)cc2)CCCN1c1cnc(C(N)=O)c(Nc2cn(C)nc2C(F)(F)F)n1 [Example D-278, 5-[(2R,3R)-3-(4-cyclopropylbenzamido)-2-methylpiperidin-1-yl]-3-{[1-methyl-3-(trifluoromethyl)-1H-pyrazol-4-yl]amino}pyrazine-2-carboxamide] |
| 100 to 1000 | 100 to 1000 | 100 to 1000 | 10 to 100 | ≤ 10 | C[C@@H]1[C@H](NC(=O)c2ccc(C3CC3)nc2)CCCN1c1cnc(C(N)=O)c(Nc2ccc(OC3CCOCC3)cc2)n1 [Example D-309, 5-[(2R,3R)-3-(6-cyclopropylpyridine-3-amido)-2-methylpiperidin-1-yl]-3-{[4-(oxan-4-yloxy)phenyl]amino}pyrazine-2-carboxamide] |
